Results: US20260376293A1, “METHODS FOR STUDYING GPR158 PHARMACOLOGY AND IDENTIFICATION OF ITS LIGANDS” (UNIVERSITY OF FLORIDA RESEARCH FOUNDATION, INCORPORATED, priority 2022, published 2026)

Target: T1, GPR158 S266A mutant (Homo sapiens, UniProt Q5T848, S266A)
T1 construct: RGS7/Gβ5 co-expressed in the GAP BRET row only
T1 sequence (Q5T848 24-1215 S266A): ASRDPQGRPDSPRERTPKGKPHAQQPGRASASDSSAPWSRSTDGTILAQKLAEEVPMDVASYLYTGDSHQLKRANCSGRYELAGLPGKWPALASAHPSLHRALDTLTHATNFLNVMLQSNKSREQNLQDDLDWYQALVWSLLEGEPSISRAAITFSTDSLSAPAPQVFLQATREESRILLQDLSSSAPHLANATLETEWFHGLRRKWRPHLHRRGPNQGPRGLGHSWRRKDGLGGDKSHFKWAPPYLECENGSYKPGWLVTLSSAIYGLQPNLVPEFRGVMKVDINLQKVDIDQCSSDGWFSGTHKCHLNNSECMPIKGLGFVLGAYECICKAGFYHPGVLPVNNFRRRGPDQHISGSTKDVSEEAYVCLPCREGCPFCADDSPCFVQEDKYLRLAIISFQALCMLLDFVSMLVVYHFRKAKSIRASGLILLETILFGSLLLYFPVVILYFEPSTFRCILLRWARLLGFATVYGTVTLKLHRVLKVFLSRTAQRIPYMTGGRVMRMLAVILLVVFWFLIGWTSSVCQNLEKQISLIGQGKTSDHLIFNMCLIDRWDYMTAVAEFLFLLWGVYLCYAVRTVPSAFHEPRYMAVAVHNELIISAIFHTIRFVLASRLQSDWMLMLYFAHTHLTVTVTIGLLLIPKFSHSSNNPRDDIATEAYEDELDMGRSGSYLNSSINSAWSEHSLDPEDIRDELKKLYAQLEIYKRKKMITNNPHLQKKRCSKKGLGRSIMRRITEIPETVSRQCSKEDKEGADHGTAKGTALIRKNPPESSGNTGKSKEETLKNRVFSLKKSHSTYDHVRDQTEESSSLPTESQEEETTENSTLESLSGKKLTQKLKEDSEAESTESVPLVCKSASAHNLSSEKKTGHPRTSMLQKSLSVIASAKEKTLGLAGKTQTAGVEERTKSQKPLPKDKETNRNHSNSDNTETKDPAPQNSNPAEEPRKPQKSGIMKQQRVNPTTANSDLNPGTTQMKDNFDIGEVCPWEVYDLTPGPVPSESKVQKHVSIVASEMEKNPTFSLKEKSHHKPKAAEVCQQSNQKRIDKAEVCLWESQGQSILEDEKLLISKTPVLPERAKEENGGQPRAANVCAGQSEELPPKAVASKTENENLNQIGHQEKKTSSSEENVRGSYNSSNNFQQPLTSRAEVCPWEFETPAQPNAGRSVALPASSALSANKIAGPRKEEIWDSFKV
Test: Radioligand binding assay on GPR158 mutant S266A
Excerpt: FIGS. 11A-11G. Probing Cache domain of GPR158 as a ligand binding site A) Computational docking of glycine into putative ligand binding pocket on GPR158 Cache domain. Glycine and directly interacting residues are shown as sticks. Hydrogen bonds and van der Waals interactions are shown as dotted lines. B) Diagram showing interactions in the docked model of glycine against GPR158 Cache domain. Hydrogen bonds are shown as dashed lines, van der Waals interactions are shown as intersecting semicircles, and the secondary structural context of Ser266 and Tyr269 is shown as an arc. Dagger indicates a residue implicated in glycine binding in 11A. C) Radioligand binding assay of ^3H-glycine in cells expressing GPR158 mutants. Data shown mean±s.e.m. of 3 independent experiments, *p<0.05, ns=p>0.05 one-way ANOVA. D) Functional evaluation of GPR158 mutants in GAP BRET assay. Error bars are mean±s.e.m. of 3 independent experiments in triplicate. *p<0.05, **p<0.01, ***p<0.001, ****p<0.0001, ns=p>0.05, two-way ANOVA Columns with no fill (Ctrl), columns with angled-line fill (Glycine) E) Quantification of glycine inhibitory effect on kGAP normalized to the effect seen with WT receptor. […]
Whole cell binding was performed using cDNA of GPR158-venus or each GPR158-venus mutant or empty pcDNA3.1+ for ctrl cells. […] Finally radioactivity was measured using the liquid scintillation analyzer Tri-Carb 4910 TR.

For NCC(=O)O [glycine], the glycine binding was “normally bind glycine”.
